{"source": "patent US20020160936A1", "about": "“HCV E2 PROTEIN BINDING AGENTS FOR TREATMENT OF HEPATITIS C VIRUS INFECTION” (priority 1999, published 2002)", "origin": "cited, not measured here", "system": "hepatitis C virus", "details": "subjects with chronic hepatitis C"}
{"substance": "interferon-alpha", "values": [{"measurement": "long-term cure rate", "result": "less than 10%"}]}
